The values that follow come from ChEMBL document CHEMBL1152560, “Substituted 2-arylbenzothiazoles as kinase inhibitors: hit-to-lead optimization” (Bioorg Med Chem, 2009).

The target in experiment [1] is Dual specificity mitogen-activated protein kinase kinase 1 (Homo sapiens) (UniProt Q02750). Description: Residual activity of wild type MEK1 at 1 uM by microplate scintillation counting.
For experiment [2], the target named is T1, Myotonin-protein kinase (Homo sapiens) (UniProt Q09013).
T1 sequence (whole entry): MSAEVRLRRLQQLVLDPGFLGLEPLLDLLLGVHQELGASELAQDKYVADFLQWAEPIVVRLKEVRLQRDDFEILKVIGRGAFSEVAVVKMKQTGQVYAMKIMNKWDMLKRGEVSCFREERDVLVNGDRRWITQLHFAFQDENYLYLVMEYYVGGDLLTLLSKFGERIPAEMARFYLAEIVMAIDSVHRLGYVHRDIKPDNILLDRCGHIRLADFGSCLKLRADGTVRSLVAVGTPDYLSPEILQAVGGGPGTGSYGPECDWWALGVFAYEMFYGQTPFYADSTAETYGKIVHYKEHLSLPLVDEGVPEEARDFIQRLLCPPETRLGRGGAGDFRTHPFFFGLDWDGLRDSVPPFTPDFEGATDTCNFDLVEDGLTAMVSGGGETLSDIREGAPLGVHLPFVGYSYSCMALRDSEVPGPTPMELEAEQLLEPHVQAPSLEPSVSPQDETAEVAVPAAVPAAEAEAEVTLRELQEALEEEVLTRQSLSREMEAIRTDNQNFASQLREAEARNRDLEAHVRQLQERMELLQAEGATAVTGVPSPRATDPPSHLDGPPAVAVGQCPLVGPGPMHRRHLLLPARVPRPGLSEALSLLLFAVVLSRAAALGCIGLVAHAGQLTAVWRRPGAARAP
Description: Residual activity of DMPK at 10 uM by microplate scintillation counting.

Experiment [3] addresses Activated CDC42 kinase 1 (Homo sapiens) (UniProt Q07912). Description: Residual activity of ACK1 at 1 uM by microplate scintillation counting.
The target of experiment [4] is Tyrosine-protein kinase BTK (Homo sapiens) (UniProt Q06187). Description: Residual activity of BTK at 10 uM by microplate scintillation counting.
Sequence of Tyrosine-protein kinase BTK (Homo sapiens) (Q06187 whole entry): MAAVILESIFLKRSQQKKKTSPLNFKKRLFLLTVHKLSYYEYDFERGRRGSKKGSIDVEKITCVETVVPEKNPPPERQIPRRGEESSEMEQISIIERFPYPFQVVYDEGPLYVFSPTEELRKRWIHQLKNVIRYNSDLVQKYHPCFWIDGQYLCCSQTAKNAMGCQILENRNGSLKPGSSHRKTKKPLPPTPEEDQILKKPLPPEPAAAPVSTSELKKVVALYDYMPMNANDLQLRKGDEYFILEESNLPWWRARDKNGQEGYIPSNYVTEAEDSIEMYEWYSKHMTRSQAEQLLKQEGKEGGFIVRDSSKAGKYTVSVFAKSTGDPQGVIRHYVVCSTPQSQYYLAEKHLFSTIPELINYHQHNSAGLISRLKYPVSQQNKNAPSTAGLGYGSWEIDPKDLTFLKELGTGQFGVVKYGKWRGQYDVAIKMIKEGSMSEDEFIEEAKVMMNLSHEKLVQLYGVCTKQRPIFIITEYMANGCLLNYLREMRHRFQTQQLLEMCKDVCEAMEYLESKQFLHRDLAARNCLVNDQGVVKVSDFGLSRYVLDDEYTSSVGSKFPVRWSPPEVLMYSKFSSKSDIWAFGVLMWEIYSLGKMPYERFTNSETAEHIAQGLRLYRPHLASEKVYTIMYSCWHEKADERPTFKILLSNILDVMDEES
Experiment [5] has as its target CDK1/Cyclin E (Homo sapiens) (UniProt P06493+P24864). In words: Residual activity of CDK1/Cyclin E at 10 uM by microplate scintillation counting. It is filed as protein-complex assay.
Experiment [6] addresses Serine/threonine-protein kinase 26 (Homo sapiens) (UniProt Q9P289). Description: Residual activity of MST4 at 10 uM by microplate scintillation counting.
For experiment [7], the target named is Serine/threonine-protein kinase PAK 3 (Homo sapiens) (UniProt O75914). In words: Residual activity of PAK3 at 10 uM by microplate scintillation counting.
Sequence of Serine/threonine-protein kinase PAK 3 (Homo sapiens) (O75914 whole entry, looked up): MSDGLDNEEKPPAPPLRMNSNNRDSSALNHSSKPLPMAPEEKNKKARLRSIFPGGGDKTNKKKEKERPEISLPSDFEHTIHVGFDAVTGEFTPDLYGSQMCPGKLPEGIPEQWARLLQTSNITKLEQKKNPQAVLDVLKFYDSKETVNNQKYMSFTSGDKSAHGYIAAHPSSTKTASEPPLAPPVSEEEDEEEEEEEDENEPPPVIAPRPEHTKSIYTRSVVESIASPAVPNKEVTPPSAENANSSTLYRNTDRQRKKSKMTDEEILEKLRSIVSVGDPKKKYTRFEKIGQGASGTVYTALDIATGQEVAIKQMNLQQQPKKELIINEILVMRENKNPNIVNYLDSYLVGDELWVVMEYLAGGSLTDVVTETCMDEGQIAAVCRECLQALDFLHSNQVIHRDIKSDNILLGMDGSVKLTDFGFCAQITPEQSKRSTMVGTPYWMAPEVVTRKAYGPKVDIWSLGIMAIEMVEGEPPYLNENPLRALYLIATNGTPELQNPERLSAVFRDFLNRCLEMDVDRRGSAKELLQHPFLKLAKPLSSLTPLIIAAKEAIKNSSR
Experiment [8] has as its target Ribosomal protein S6 kinase alpha-4 (Homo sapiens) (UniProt O75676). Description: Residual activity of RPS6KA4 at 10 uM by microplate scintillation counting.
Experiment [9] addresses T2, TGF-beta receptor type-1 (Homo sapiens) (UniProt P36897).
T2 sequence (whole entry): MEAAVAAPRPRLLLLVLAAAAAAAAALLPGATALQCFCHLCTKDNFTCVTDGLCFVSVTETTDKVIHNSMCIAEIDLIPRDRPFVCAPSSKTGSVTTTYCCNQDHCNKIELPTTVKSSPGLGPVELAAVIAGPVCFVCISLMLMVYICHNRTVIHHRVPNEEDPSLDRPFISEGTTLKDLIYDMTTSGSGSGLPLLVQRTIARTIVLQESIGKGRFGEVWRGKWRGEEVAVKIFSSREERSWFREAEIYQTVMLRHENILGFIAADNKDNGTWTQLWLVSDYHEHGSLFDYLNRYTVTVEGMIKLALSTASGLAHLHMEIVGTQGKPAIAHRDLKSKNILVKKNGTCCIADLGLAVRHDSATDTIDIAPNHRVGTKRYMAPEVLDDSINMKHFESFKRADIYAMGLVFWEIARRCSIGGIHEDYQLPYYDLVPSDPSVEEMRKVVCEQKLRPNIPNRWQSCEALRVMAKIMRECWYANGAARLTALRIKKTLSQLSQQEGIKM
Description: Residual activity of TGFB-R1 at 10 uM by microplate scintillation counting.

Experiment [10] has as its target T3, Testis-specific serine/threonine-protein kinase 1 (Homo sapiens) (UniProt Q9BXA7).
T3 sequence (whole entry): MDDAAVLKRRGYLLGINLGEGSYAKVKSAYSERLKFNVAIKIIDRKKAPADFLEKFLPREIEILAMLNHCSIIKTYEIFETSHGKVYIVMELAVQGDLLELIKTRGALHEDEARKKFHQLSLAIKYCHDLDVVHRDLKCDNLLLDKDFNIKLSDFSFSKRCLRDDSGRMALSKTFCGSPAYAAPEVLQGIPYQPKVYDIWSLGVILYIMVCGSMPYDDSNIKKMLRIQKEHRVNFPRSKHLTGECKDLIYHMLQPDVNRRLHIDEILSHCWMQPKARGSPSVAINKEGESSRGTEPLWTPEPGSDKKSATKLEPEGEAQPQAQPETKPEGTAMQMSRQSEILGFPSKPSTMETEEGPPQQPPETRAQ
Description: Residual activity of TSSK1 at 10 uM by microplate scintillation counting.

Sequence of Dual specificity mitogen-activated protein kinase kinase 1 (Homo sapiens) (Q02750 whole entry): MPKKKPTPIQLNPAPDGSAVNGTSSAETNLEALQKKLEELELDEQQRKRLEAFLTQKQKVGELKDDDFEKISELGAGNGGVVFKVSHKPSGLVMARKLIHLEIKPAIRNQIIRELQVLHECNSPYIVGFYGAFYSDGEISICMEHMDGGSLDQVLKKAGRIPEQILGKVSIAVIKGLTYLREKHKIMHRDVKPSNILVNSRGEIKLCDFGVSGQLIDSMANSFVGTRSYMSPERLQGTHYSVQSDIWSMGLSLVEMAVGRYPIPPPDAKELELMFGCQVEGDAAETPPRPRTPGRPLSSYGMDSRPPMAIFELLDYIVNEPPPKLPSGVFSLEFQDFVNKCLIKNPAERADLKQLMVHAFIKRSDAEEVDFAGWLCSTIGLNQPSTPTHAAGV
Sequence of Activated CDC42 kinase 1 (Homo sapiens) (Q07912 whole entry, looked up): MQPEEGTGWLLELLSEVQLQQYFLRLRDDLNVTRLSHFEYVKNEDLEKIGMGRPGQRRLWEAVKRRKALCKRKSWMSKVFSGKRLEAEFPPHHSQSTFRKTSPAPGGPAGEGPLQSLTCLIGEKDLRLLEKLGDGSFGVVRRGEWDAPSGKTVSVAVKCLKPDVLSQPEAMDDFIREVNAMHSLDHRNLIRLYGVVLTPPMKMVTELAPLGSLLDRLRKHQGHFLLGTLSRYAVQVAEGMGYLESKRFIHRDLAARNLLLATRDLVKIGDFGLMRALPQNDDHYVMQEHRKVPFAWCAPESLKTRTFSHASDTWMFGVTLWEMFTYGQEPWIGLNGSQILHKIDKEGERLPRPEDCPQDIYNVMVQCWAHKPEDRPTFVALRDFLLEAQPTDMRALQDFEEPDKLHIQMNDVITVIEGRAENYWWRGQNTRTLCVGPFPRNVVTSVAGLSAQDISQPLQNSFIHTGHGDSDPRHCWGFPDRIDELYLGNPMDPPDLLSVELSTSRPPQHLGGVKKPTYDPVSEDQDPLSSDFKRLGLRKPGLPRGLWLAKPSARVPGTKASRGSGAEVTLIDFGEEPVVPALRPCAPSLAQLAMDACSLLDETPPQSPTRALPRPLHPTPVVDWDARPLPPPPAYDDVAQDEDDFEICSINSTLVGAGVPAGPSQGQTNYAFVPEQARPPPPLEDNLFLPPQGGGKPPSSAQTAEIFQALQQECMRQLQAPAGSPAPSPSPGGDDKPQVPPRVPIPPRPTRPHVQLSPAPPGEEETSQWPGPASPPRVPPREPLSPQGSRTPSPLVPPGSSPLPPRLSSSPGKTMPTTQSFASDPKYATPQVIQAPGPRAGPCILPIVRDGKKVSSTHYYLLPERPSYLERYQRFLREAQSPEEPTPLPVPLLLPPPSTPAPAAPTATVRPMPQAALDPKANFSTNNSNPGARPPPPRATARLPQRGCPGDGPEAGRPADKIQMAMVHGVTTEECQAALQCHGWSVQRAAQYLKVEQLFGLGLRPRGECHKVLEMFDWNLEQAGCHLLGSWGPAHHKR
Sequence of Ribosomal protein S6 kinase alpha-4 (Homo sapiens) (O75676 whole entry, looked up): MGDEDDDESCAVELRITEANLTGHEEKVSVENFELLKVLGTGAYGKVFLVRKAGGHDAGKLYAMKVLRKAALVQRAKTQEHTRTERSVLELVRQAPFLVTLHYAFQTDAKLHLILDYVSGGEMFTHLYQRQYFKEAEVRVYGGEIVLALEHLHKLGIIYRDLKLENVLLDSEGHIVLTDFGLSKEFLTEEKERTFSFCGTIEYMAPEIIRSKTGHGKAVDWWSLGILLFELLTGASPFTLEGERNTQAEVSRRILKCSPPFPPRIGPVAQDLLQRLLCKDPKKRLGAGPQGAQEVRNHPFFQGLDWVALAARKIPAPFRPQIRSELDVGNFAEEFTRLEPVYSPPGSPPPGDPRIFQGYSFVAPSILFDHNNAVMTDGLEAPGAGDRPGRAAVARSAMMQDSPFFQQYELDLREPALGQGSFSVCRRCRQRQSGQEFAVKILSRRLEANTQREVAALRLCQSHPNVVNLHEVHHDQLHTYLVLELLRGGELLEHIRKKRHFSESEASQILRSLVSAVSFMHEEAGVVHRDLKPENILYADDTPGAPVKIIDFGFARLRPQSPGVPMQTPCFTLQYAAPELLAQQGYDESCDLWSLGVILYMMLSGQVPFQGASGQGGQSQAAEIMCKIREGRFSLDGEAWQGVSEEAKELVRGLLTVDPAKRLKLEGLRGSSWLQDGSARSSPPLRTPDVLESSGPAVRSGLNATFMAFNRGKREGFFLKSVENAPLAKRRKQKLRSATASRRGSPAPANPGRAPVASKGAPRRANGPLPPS
Sequence of Serine/threonine-protein kinase 26 (Homo sapiens) (Q9P289 2-416 limits assumed): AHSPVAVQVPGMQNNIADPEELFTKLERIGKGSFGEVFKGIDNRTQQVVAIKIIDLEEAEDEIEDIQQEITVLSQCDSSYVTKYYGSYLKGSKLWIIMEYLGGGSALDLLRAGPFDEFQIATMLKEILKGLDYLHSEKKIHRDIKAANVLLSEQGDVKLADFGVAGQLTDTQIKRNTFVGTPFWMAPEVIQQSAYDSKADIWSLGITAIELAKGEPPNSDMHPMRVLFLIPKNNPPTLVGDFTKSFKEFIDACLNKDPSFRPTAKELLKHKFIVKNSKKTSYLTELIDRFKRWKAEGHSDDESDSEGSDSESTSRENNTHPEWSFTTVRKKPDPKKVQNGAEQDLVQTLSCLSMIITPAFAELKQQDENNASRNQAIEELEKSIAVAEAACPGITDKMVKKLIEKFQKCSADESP
Sequence of CDK1/Cyclin E (Homo sapiens) (P06493 whole entry, looked up): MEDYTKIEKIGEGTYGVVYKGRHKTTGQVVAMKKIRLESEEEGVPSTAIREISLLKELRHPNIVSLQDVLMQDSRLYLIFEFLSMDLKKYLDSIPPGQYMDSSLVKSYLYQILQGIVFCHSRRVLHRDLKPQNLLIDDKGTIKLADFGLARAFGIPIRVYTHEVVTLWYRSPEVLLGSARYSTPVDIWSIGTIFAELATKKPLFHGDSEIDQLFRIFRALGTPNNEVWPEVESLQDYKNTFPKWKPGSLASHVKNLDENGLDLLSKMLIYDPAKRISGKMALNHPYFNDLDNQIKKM
Sequence of CDK1/Cyclin E (Homo sapiens) (P24864 whole entry, looked up): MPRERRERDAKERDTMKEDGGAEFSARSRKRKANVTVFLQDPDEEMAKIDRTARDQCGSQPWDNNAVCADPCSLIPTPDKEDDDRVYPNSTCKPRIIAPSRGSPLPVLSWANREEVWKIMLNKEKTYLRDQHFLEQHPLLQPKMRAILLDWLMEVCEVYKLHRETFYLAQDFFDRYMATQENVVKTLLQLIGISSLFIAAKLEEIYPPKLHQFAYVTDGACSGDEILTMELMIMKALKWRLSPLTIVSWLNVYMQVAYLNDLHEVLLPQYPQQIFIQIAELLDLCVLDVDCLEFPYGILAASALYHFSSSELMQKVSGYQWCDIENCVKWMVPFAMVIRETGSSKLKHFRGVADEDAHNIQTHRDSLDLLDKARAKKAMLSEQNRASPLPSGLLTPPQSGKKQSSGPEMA

Take `COc1cc2c(Oc3ccc(-c4nc5ccccc5s4)cc3)ncnc2cc1OCCCN1CCN(C)CC1`: the residual activity was 53% in experiment [1]; 88% in experiment [2]; 76% in experiment [3]; 40% in experiment [4]; 108% in experiment [5]; 88% in [6]. Besides, the residual activity worked out at 43% in [7], 135% in [8], 94% in [9] and 406% in experiment [10].
Turning to `COc1cc2c(Oc3ccc(-c4nc5ccccc5s4)cc3)ncnc2cc1OCCCN1CCCC1`, the residual activity came out at 59% in experiment [1]; 118% in experiment [2]; 106% in experiment [3]; 53% in [4]; 93% in experiment [5]; 85% in [6]. Also, the residual activity in experiment [7] is 56%; in [8] it was 162%; in experiment [9] it was 100%; in [10] it was 322%.
For `COc1cc2c(Oc3ccc(-c4nc5ccccc5s4)cc3F)ncnc2cc1OCCCN1CCN(C)CC1`, the residual activity came out at 52% in experiment [1]; 166% in experiment [2]; 90% in experiment [3]; 6% in [4]; 107% in [5]; 76% in experiment [6]. Further, the residual activity came to 39% in [7], 142% in experiment [8], 94% in experiment [9] and 397% in experiment [10].
